Results reported in US11974983B2 (Duke University, priority 2018, dated 2024).

Columns and labels:
[1] = tested on: wild-type ERα and ERα LBD mutants Y537S, Y537N, Y537C, D538G; assay: ERE-luciferase reporter assay in Caov2 and SKBR3 cells (statements on all receptors); format: cell-based
Description: ExSite mutagenesis was performed using the corresponding primers as summarized in Table 1 below on a pENTR2B ERα WT construct using Pfu ultra taq polymerase. The primers were PNK phosphorylated. Following PCR amplification, the products were digested with DpnI at 37° C. for 1 hr, followed by overnight ligation at 16° C. Ligated products were transformed into DH5α bacterial cells and grown on kanamycin resistant plates. The pENTR clones were verified by sequencing and then swapped into the pcDNA-DEST vector using the Gateway system (Invitrogen) for expression analysis.
Caov2 ovarian carcinoma cells were grown in RPMI-1640 media (Gibco) supplemented with 8% Fetal Bovine Serum (FBS), Sodium Pyruvate (NaPyr) and non-essential amino acids (NEAA) and passaged every 2-3 days. SKBR3 breast adenocarcinoma cells were grown in DMEM media (Gibco) supplemented with 8% Fetal Bovine Serum (FBS), Sodium Pyruvate (NaPyr) and non-essential amino acids (NEAA) and passaged every 2-3 days. […]
Caov2 cells were co-transfected with the 7X-TK-ERE-TATA luciferase reporter gene (Nagel et al., Endocrinology 142(11): 4721-4728 (2001)) and expression constructs for either wild-type or mutant receptors using Fugene transfection reagent (Promega). […] Following 24 hours of treatment, cells were lysed and the luciferase and β-gal assays were performed as described previously (Norris et al., J Biol Chem 270(39): 22777-22782 (1995)) and the plates were read on the Fusion α-FP HT plate reader (PerkinElmer Life Sciences).
See Jeselsohn et al., Nature Reviews Clinical Oncology 12(10): 573-583 (2015); Jeselsohn et al., Clinical Cancer Research 20(7): 1757-1767 (2014); Robinson et al., Nature Genetics 45(12): 1446-1451(2013); Thomas and Gustafsson, Trends in Endocrinology and Metabolism 26(9): 467-476 (2015); and Toy et al., Nature Genetics 45(12): 1439-1445 (2013). The activity of these mutants was evaluated in a reconstituted estrogen response element (ERE)-luciferase reporter assay in Caov2 ovarian carcinoma cells and SKBR3 breast adenocarcinoma cells. […]

MCF7 Y537S = assay: Mammary intraductal (MIND) xenograft model, MCF7 Y537S; format: in vivo, NSG mice; settings: MCF7 Y537S; fulvestrant 5 mg once per week; after 70 days
Description: (§1) MCF7 cells were engineered with CRISPR/Cas9 to express ERα with Y537S and D538G mutations. To mimic the natural environment of infiltrating ductal ERα^+ breast cancers, NSG™ mice were injected, via the nipple in the inguinal mammary glands, with three MCF7 cell variants: wild type MCF7 cells (MCF7 WT), MCF7 cells expressing Y537S mutant ERα (MCF7 Y537S), and MCF7 cells expressing D538G mutant ERα (MCF7 D538G), respectively. Prior to injection, the MCF7 cells were labeled with a luciferase reporter to monitor tumor growth in vivo using a Xenogen IVIS imager. […] FIG. 4 summarizes the experimental design.

MCF7 WT [2] = assay: MIND xenograft model, combination therapies, MCF7 WT; format: in vivo, mice
Text: MCF7 WT and MCF7 Y537S MIND xenograft model were generated as described in Example 3. […] FIG. 20 summarizes the experimental design.

MCF7 WT [3] = assay: Mammary intraductal (MIND) xenograft model, MCF7 WT; format: in vivo, NSG mice; settings: MCF7 WT mice; fulvestrant 5 mg once per week subcutaneous
Description: as §1

## C[C@]12CC[C@@H]3c4ccc(O)cc4CC[C@H]3[C@@H]1CC[C@@H]2O [E2, 17-β estradiol]
[1]
  transcriptional activity, response to E2: not responsive to E2 activation

## C[C@]12CC[C@@H]3c4ccc(O)cc4C[C@@H](CCCCCCCCC[S+]([O-])CCCC(F)(F)C(F)(F)F)[C@H]3[C@@H]1CC[C@@H]2O (some centres unmarked) [fulvestrant]
MCF7 Y537S
  lung metastasis: did not have a significant effect
MCF7 WT [2]; MCF7 WT mice, fulvestrant alone 5 mg/mouse once per week
  tumor growth monitored by total flux: the most effective in inhibiting tumor growth
MCF7 WT [2]; MCF7 WT, day 36 and day 43 of treatment
  tumor growth by tumor volume: the most effective
MCF7 WT [3]
  tumor growth monitored by total flux: the most effective in inhibiting tumor growth
